This note sets out measurements from publication PMC11618052, “Design, synthesis, and antiproliferative activity of new 1,2,3-triazole/quinazoline-4-one hybrids as dual EGFR/BRAF^V600E inhibitors” (RSC Advances, 2024).

The term viability denotes a read-out of living cells in per cent, often relative to untreated cells. High values mean less harm to the cells, low ones more harm to the cells. A word on the IC50: it is the concentration that gives 50% inhibition. What is called GI50 is the concentration that inhibits growth by half. Read a low GI50 as more potent growth inhibition.

Holding throughout (format): cell-based
Series [1] can be described thus: Cell viability MTT assay on MCF-10A normal cells. The following applies: human, MCF-10A normal mammary gland epithelial cells, MCF-10A cells, four days of incubation. The method, then: The viability of new compounds 8a–t was evaluated using the MCF-10A normal human mammary gland epithelial cell line. The cell viability of compounds 8a–t was examined using the MTT assay[36] after four days of incubation with MCF-10A cells. For more details, see Appendix A (ESI file). ^† […]
We evaluated the viability of new compounds 8a–t using the MCF-10A normal human mammary gland epithelial cell line. The cell viability of compounds 8a–t was examined using the MTT assay[36] after four days of incubation with MCF-10A cells.
4.2. Biological evaluation
4.2.1. Cytotoxic activity using MTT Assay and evaluation of IC 50
MTT assay was carried out to study the effect of compounds on mammary epithelial cells (MCF-10A). The medium in which cells were propagated contained Dulbecco's modified Eagle's medium (DMEM)/ Ham's F-12 medium (1:1) supplemented with epidermal growth factor (20 ng/mL), hydrocortisone (500 ng/mL), insulin (10 μg/mL), 2 mM glutamine and 10% foetal calf serum.
After every 2-3 days, the cells were passaged using trypsin ethylenediamine tetra acetic acid (EDTA). The cells were seeded at a density of 10^4 cells mL-1 in flat-bottomed culture plates containing 96 wells each. After 24 h, medium was removed from the plates and the compounds in (in 0.1% DMSO) were added (in 200 μL medium to yield a final concentration of 0.1% v/v) to the wells of plates. A single compound was designated with four wells followed by incubation of plates for 96h at 37°C. After incubation, medium was removed completely from the plates followed by addition of MTT (0.4 mg/mL in medium) to each well and subsequent incubation of plates for 3h. MTT (along with the medium) was removed and DMSO (150μL) was added to each well of the culture plates, followed by vortexing and subsequent measurement of absorbance (at 540 nm) using microplate reader. The data are shown as percentage inhibition of proliferation in comparison with controls containing 0.1% DMSO. […]
For orientation: Formazan colour is commonly taken as a measure of viable cells.

For a further series, the system named is lung cancer (A-549). In words: Antiproliferative MTT assay, A-549. The following applies: Homo sapiens, A549, A-549 lung cancer cells, read-out: Antiproliferative activity IC50 ± SEM, A-549. The method, then: (§1) The median inhibitory concentration (IC50) and GI50 (mean IC50) for the four cancer cell lines were calculated. Appendix A ^† contains more details. […]

The next series relates to breast cancer (MCF-7). Briefly: Antiproliferative MTT assay, MCF-7. The following applies: Homo sapiens, MCF7, MCF-7 breast cancer cells, read-out: Antiproliferative activity IC50 ± SEM, MCF-7. The method, then:
as §1

Series [2] relates to pancreatic cancer (Panc-1). In words: Antiproliferative MTT assay, Panc-1. The following applies: Homo sapiens, Panc-1 pancreatic cancer cells, read-out: Antiproliferative activity IC50 ± SEM, Panc-1. The method, then: as §1
The subject of another series is colon cancer (HT-29). Briefly: Antiproliferative MTT assay, HT-29. The settings on record: Homo sapiens, HT-29 colon cancer cells, read-out: Antiproliferative activity IC50 ± SEM, HT-29. The method, then:
as §1

The test system of series [3] is four human cancer cell lines (A-549, MCF-7, Panc-1, HT-29). Briefly: Antiproliferative MTT assay, mean over the four cancer cell lines. The settings on record: for GI50: Homo sapiens, mean IC50 over A-549, MCF-7, Panc-1, HT-29. The method, then: as §1

In series [1], `C=CCn1c(SCc2cn(-c3ccc(C)cc3)nn2)nc2ccccc2c1=O` [Compound 8t, 2-(((1-(p-Tolyl)-1H-1,2,3-triazol-4-yl)methyl)thio)-3-allyl quinazolin-4(3H)-one] displayed a viability at 4 days, 50 µM of 90%. For the same compound, the IC50 in the series with lung cancer (A-549) was found to be 84 ± 7 nM; in the series with breast cancer (MCF-7), 80 ± 7 nM; in series [2] it was 87 ± 7 nM; with colon cancer (HT-29), 87 ± 7 nM. Further, in series [3], the GI50 was determined as 85 nM.
Regarding `Cc1cccc(-n2c(SCc3cn(-c4ccccc4)nn3)nc3ccccc3c2=O)c1` [Compound 8i, 2-(((1-Phenyl-1H-1,2,3-triazol-4-yl)methyl)thio)-3-(m-tolyl)quinazolin-4(3H)-one], the viability at 4 days, 50 µM in series [1] came out at 90%. The IC50 in the series on lung cancer (A-549) is 65 ± 5 nM; in the series with breast cancer (MCF-7), 59 ± 5 nM; in series [2] it was 68 ± 6 nM; in the series with colon cancer (HT-29), 68 ± 6 nM. In series [3], this compound returned a GI50 of 65 nM.
The compound `C=CCn1c(SCc2cn(-c3ccc(OC)cc3)nn2)nc2ccccc2c1=O` [Compound 8s, 2-(((1-(4-Methoxyphenyl)-1H-1,2,3-triazol-4-yl)methyl)thio)-3-allyl quinazolin-4(3H)-one] returned a viability at 4 days, 50 µM in series [1] of 91%. Moreover, the IC50 came out at 57 ± 5 nM in the series on lung cancer (A-549), 53 ± 4 nM in the series with breast cancer (MCF-7), 59 ± 5 nM in series [2] and 59 ± 5 nM in the series with colon cancer (HT-29). This compound also displayed a GI50 in series [3] of 57 nM.
As to `Cc1ccc(-n2cc(CSc3nc4ccccc4c(=O)n3-c3ccccc3)nn2)cc1` [Compound 8d, 2-(((1-(p-Tolyl)-1H-1,2,3-triazol-4-yl)methyl)thio)-3-phenylquinazolin-4(3H)-one], in series [1], the viability at 4 days, 50 µM came to 89%. Also, the IC50 in the series with lung cancer (A-549) was 53 ± 4 nM; in the series with breast cancer (MCF-7) it was 48 ± 4 nM; in series [2] it was 56 ± 4 nM; with colon cancer (HT-29), 56 ± 4 nM. In addition, it took 53 nM to inhibit growth in series [3] by half (GI50).
Consider `Cc1ccc(-n2c(SCc3cn(-c4ccccc4)nn3)nc3ccccc3c2=O)cc1` [Compound 8e, 2-(((1-Phenyl-1H-1,2,3-triazol-4-yl)methyl)thio)-3-(p-tolyl)quinazolin-4(3H)-one], for which the viability at 4 days, 50 µM in series [1] was determined as 90%. In addition, the IC50 is 88 ± 8 nM with lung cancer (A-549), 85 ± 8 nM in the series on breast cancer (MCF-7), 92 ± 8 nM in series [2] and 92 ± 8 nM in the series on colon cancer (HT-29). The “Fold less potent than compound 8g (GI50)” value in series [3] (GI50 versus methoxy derivative 8g) worked out at 4. Growth in series [3] was halved (GI50) at 89 nM.
Consider `O=c1c2ccccc2nc(SCc2cn(-c3ccccc3)nn2)n1-c1ccccc1` [Compound 8a, 2-(((1-Phenyl-1H-1,2,3-triazol-4-yl)methyl)thio)-3-phenyl quinazolin-4(3H)-one], for which the viability at 4 days, 50 µM in series [1] was 89%. The IC50 with lung cancer (A-549) is 61 ± 5 nM; in the series on breast cancer (MCF-7), 56 ± 5 nM; in series [2] it was 64 ± 5 nM; in the series on colon cancer (HT-29) it was 64 ± 5 nM. In series [3], this compound gave a GI50 of 61 nM.
On to `C=CCn1c(SCc2cn(-c3ccccc3)nn2)nc2ccccc2c1=O` [Compound 8q, 2-(((1-Phenyl-1H-1,2,3-triazol-4-yl)methyl)thio)-3-allyl quinazolin-4(3H)-one], for which the viability at 4 days, 50 µM in series [1] is 87%. The IC50 in the series on lung cancer (A-549) was 93 ± 8 nM; in the series with breast cancer (MCF-7), 89 ± 8 nM; in series [2], 96 ± 8 nM; in the series with colon cancer (HT-29), 96 ± 8 nM. This compound displayed a concentration for 50% growth inhibition (GI50) in series [3] of 94 nM.
With `COc1ccc(-n2cc(CSc3nc4ccccc4c(=O)n3-c3cccc(C)c3)nn2)cc1` [Compound 8k, 2-(((1-(4-Methoxyphenyl)-1H-1,2,3-triazol-4-yl)methyl)thio)-3-(m-tolyl)quinazolin-4(3H)-one], the viability at 4 days, 50 µM in series [1] is 85%. The IC50 in the series with lung cancer (A-549) stood at 42 ± 3 nM; with breast cancer (MCF-7) it was 39 ± 3 nM; in series [2], 46 ± 3 nM; in the series with colon cancer (HT-29) it was 45 ± 3 nM. Besides, in series [3], the GI50 stood at 43 nM.
As for `CCn1c(SCc2cn(-c3ccc(C)cc3)nn2)nc2ccccc2c1=O` [Compound 8p, 2-(((1-(p-Tolyl)-1H-1,2,3-triazol-4-yl)methyl)thio)-3-ethylquinazolin-4(3H)-one], in series [1], the viability at 4 days, 50 µM is 86%. In addition, the IC50 was 82 ± 7 nM with lung cancer (A-549), 77 ± 7 nM in the series with breast cancer (MCF-7), 84 ± 7 nM in series [2] and 85 ± 7 nM in the series with colon cancer (HT-29). The same compound had a GI50 in series [3] of 82 nM.
As for `CCn1c(SCc2cn(-c3ccc(Cl)cc3)nn2)nc2ccccc2c1=O` [Compound 8n, 2-(((1-(4-Chlorophenyl)-1H-1,2,3-triazol-4-yl)methyl)thio)-3-ethyl quinazolin-4(3H)-one], in series [1], the viability at 4 days, 50 µM is 92%. Moreover, the IC50 with lung cancer (A-549) was 75 ± 6 nM; with breast cancer (MCF-7), 71 ± 6 nM; in series [2] it was 78 ± 6 nM; in the series on colon cancer (HT-29) it was 79 ± 6 nM. For the same compound, halving of growth in series [3] (GI50) required 76 nM.
Turning to `CCn1c(SCc2cn(-c3ccc(OC)cc3)nn2)nc2ccccc2c1=O` [Compound 8o, 2-(((1-(4-Methoxyphenyl)-1H-1,2,3-triazol-4-yl)methyl)thio)-3-ethyl quinazolin-4(3H)-one], the viability at 4 days, 50 µM in series [1] worked out at 89%. For the same compound, the IC50 was determined as 69 ± 5 nM in the series with lung cancer (A-549), 63 ± 5 nM in the series with breast cancer (MCF-7), 74 ± 6 nM in series [2] and 74 ± 6 nM in the series with colon cancer (HT-29). The compound also came in with a GI50 in series [3] of 70 nM.
Regarding `C#Cc1cccc(Nc2ncnc3cc(OCCOC)c(OCCOC)cc23)c1` [Erlotinib, reference compound], the IC50 with lung cancer (A-549) turned out to be 30 ± 3 nM; with breast cancer (MCF-7) it was 40 ± 3 nM; in series [2], 30 ± 3 nM; with colon cancer (HT-29), 30 ± 3 nM.
In series [1], `O=c1c2ccccc2nc(SCc2cn(-c3ccc(Cl)cc3)nn2)n1-c1ccccc1` [Compound 8b, 2-(((1-(4-Chlorophenyl)-1H-1,2,3-triazol-4-yl)methyl)thio)-3-phenyl quinazolin-4(3H)-one] displayed a viability at 4 days, 50 µM of 90%. The IC50 with lung cancer (A-549) was 40 ± 3 nM; in the series with breast cancer (MCF-7), 36 ± 3 nM; in series [2] it was 42 ± 3 nM; with colon cancer (HT-29) it was 44 ± 3 nM. The compound also gave a GI50 in series [3] of 41 nM.
For the compound `CCn1c(SCc2cn(-c3ccccc3)nn2)nc2ccccc2c1=O` [Compound 8m, 2-(((1-Phenyl-1H-1,2,3-triazol-4-yl)methyl)thio)-3-ethyl quinazolin-4(3H)-one], in series [1], the viability at 4 days, 50 µM was found to be 90%. For the same compound, the IC50 is 72 ± 6 nM in the series with lung cancer (A-549), 68 ± 6 nM with breast cancer (MCF-7), 74 ± 6 nM in series [2] and 74 ± 6 nM with colon cancer (HT-29). The same compound yielded a GI50 in series [3] of 72 nM.
Take `C=CCn1c(SCc2cn(-c3ccc(Cl)cc3)nn2)nc2ccccc2c1=O` [Compound 8r, 2-(((1-(4-Chlorophenyl)-1H-1,2,3-triazol-4-yl)methyl)thio)-3-allyl quinazolin-4(3H)-one]: the viability at 4 days, 50 µM in series [1] is 90%. Besides, the IC50 in the series with lung cancer (A-549) stood at 79 ± 6 nM; in the series with breast cancer (MCF-7), 75 ± 6 nM; in series [2] it was 81 ± 7 nM; in the series on colon cancer (HT-29), 84 ± 7 nM. Moreover, in series [3], it took 80 nM to inhibit growth by half (GI50).
As for `COc1ccc(-n2cc(CSc3nc4ccccc4c(=O)n3-c3ccccc3)nn2)cc1` [Compound 8c, 2-(((1-(4-Methoxyphenyl)-1H-1,2,3-triazol-4-yl)methyl)thio)-3-phenylquinazolin-4(3H)-one], the viability at 4 days, 50 µM in series [1] was determined as 86%. Besides, the IC50 was determined as 47 ± 3 nM in the series on lung cancer (A-549), 42 ± 3 nM in the series with breast cancer (MCF-7), 49 ± 3 nM in series [2] and 49 ± 3 nM in the series on colon cancer (HT-29). The compound further came in with a GI50 in series [3] of 47 nM.
